SMILES strings stand for the structures. In brackets after ≈: the same amount, converted by molar mass. Activity calls are given as the source filed them. The calls are words filed in the database; no cut-off is given here. Bounds are passed on as bounds.

By IC50 is commonly meant the concentration that gives 50% inhibition. As usually defined, the fraction unbound is the share of the substance not bound to proteins or other matrix. Low values mean extensive binding, high ones weak binding. As usually defined, the bioavailability is the share of a dose that reaches the circulation, judged against a reference dose that is usually intravenous. A low value points to little systemic uptake. Usually logD stands for lipophilicity at a set pH, counting ionised and neutral species. Read a low logD as a more hydrophilic compound. The term Cmax denotes the peak of the concentration-time curve. What is called AUC is concentration integrated over time. Read a low AUC as low exposure. The term Papp A→B denotes how fast a substance crosses the layer from the apical side.

Data set [1] concerns the target T1, Leukotriene C4 synthase (Homo sapiens) (UniProt Q16873).
T1 sequence (whole entry): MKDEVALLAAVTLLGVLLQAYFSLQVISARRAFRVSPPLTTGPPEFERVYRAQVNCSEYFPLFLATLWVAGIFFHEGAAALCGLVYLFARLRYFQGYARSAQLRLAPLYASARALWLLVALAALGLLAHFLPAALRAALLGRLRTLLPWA
As to the kind of experiment: Inhibition of LTC4S in healthy human whole blood assessed as inhibition of calcium ionophore A23187 stimulated cysteinyl leukotrienes production preincuabted for 30 mins followed by calcium ionophore stimulation and measured after 10 mins by LC-MS analysis. The class given is tissue-based.

Data set [2] has as its target T1, Leukotriene C4 synthase (Homo sapiens). In words: Inhibition of LTC4S in asthmatic human whole blood assessed as inhibition of calcium ionophore A23187 stimulated cysteinyl leukotrienes production preincuabted for 30 mins followed by calcium ionophore stimulation and measured after 10 mins by LC-MS analysis. Format: tissue-based.
Another data set has as its target T2, Leukotriene C4 synthase (Homo sapiens, UniProt Q16873).
T2 sequence (Q16873 whole entry): T1 sequence (whole entry)

The nature of data set [3]: Fraction unbound in Sprague-Dawley rat plasma by equilibrium dialysis based LC-MS analysis. Format: ADME, cell-free.
Data set [4] is described as follows: Fraction unbound in Beagle dog plasma by equilibrium dialysis based LC-MS analysis. Format: ADME, cell-free, Canis lupus familiaris. (Equilibrium dialysis compares concentrations on both sides of a semipermeable membrane.)
The nature of data set [5]: Fraction unbound in human plasma by equilibrium dialysis based LC-MS analysis. The class given is ADME, cell-free.
A short description of data set [6]: Effective half life in Beagle dog at 1 mg/kg, iv infusion or 2 mg/kg, po via gavage after 48 hrs. The class given is ADME, organism-based, Canis lupus familiaris. The following applies: in vivo, read-out: t1/2eff (converted).
Data set [7] is described as follows: Effective half life in Han Wistar rat at 0.5 mg/kg, iv or 1 mg/kg, po after 24 hrs. Format: ADME, organism-based. The following applies: in vivo, read-out: t1/2eff (converted).
Data set [8] is described as follows: Oral bioavailability in Beagle dog at 2 mg/kg via gavage after 48 hrs. The class given is ADME, organism-based, Canis lupus familiaris. Particulars: in vivo.
A short description of data set [9]: Oral bioavailability in Han Wistar rat at 1 mg/kg after 24 hrs. Format: ADME, organism-based. The following applies: in vivo.
The nature of data set [10]: Octanol/Sodium phosphate buffer partition coefficient, log D of compound at pH 7.4 at 1 mg incubated for overnight under shaking condition by LC-MS/MS analysis. Format: physicochemical.
A short description of data set [11]: Intrinsic clearance in human hepatocytes at 1 uM assessed as per million cells after 2 to 60 mins by LC-MS/MS analysis. The class given is ADME, cell-based, Hepatocyte. The following applies: read-out: CLH.
Another data set relates to Rattus norvegicus. In words: In vivo inhibition of LTC4S in po dosed Sprague-Dawley rat assessed as unbound drug concentration required for inhibition of calcium ionophore A23187-induced cysteinyl leukotrienes production in BAL fluid by LC-MS/MS analysis. The class given is functional.
Data set [12] can be described thus: Thermodynamic solubility of compound in pH 7.4 PBS at 1 mg/ml incubated for 24 hrs under shaking condition by LC-MS/MS analysis. The following applies: read-out: Therm_solubility. Format: physicochemical.
Data set [13] in a line: Clearance in Han Wistar rat at 0.5 mg/kg, iv or 1 mg/kg, po after 24 hrs. The class given is ADME, organism-based. Particulars: in vivo.
Data set [14] is described as follows: Clearance in Beagle dog at 1 mg/kg, iv infusion or 2 mg/kg, po via gavage after 48 hrs. Format: ADME, organism-based, Canis lupus familiaris. Particulars: in vivo.
Data set [15] is described as follows: Volume of distribution at steady state in Han Wistar rat at 0.5 mg/kg, iv or 1 mg/kg, po after 24 hrs. The following applies: in vivo, read-out: Vdss. Format: ADME, organism-based.
The nature of data set [16]: Volume of distribution at steady state in Beagle dog at 1 mg/kg, iv infusion or 2 mg/kg, po via gavage after 48 hrs. The class given is ADME, organism-based, Canis lupus familiaris. Particulars: in vivo, read-out: Vdss.
Data set [17] can be described thus: Displacement of [3H]-GABA/[3]-muscimol from GABA gated chloride channel in Sprague-Dawley rat cortical synoptic membranes by liquid scintillation analysis. A general note: In a radioligand displacement assay an active substance lowers the binding of a labelled ligand.
Data set [18] addresses T3, Solute carrier organic anion transporter family member 1B1 (Homo sapiens, UniProt Q9Y6L6).
T3 sequence (Q9Y6L6 whole entry): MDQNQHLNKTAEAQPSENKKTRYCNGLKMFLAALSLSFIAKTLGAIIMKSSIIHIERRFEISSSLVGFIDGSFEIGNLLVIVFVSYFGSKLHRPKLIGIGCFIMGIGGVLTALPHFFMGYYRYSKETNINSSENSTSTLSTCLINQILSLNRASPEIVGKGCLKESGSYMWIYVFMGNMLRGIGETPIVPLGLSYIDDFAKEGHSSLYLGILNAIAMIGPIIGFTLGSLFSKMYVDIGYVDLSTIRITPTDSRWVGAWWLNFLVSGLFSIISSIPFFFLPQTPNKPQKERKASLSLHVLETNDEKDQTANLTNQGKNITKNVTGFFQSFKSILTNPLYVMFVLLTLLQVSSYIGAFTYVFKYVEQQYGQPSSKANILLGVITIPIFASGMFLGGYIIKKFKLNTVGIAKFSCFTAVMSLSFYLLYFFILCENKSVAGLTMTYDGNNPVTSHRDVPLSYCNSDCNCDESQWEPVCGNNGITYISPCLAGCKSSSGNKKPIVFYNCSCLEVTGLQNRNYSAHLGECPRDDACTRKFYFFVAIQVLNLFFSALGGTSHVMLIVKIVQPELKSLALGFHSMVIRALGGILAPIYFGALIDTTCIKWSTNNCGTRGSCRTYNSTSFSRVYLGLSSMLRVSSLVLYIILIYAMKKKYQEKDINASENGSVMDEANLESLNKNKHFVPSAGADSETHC
In words: Inhibition of OATP1B1 (unknown origin) expressed in HEK293 cells measured after 0.5 to 20 mins by scintillation counting analysis. The class given is ADME, cell-based.

The nature of data set [19]: Cmax in po dosed rat at NOAEL measured after 7 days. The class given is ADME, organism-based. The arrangement: route oral. The following applies: in vivo.
Data set [20] in a line: AUC in po dosed rat at NOAEL measured after 7 days. Format: ADME, organism-based. Particulars: in vivo.
Another data set concerns the target T4, Cytochrome P450 1A2 (Homo sapiens, UniProt P05177).
T4 sequence (P05177 whole entry): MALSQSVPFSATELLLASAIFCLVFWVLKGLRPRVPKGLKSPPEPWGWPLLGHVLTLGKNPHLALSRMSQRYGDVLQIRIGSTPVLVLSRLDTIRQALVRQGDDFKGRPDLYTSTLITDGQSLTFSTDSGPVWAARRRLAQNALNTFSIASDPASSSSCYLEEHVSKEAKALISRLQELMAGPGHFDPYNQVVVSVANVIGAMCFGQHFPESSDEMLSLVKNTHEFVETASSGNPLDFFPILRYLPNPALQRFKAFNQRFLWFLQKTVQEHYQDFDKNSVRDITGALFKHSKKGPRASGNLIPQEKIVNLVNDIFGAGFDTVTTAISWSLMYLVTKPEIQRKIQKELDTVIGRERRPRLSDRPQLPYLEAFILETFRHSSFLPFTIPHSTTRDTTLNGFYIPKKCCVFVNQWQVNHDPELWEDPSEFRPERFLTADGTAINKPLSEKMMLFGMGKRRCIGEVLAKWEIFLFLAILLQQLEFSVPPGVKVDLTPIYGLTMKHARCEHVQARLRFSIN
As to the kind of experiment: Inhibition of recombinant human CYP1A2 using coumarin based substrate by fluorescence assay. Format: ADME.

Another data set addresses Cytochrome P450 2C9 (Homo sapiens, UniProt P11712). In words: Inhibition of recombinant human CYP2C9 expressed in Escherichia coli using coumarin based substrate by fluorescence assay. Format: ADME.
For a further data set, the target named is Cytochrome P450 2C19 (Homo sapiens, UniProt P33261). As to the kind of experiment: Inhibition of recombinant human CYP2C19 using coumarin based substrate by fluorescence assay. Format: ADME.
Cytochrome P450 2C19, sequence (P33261 whole entry): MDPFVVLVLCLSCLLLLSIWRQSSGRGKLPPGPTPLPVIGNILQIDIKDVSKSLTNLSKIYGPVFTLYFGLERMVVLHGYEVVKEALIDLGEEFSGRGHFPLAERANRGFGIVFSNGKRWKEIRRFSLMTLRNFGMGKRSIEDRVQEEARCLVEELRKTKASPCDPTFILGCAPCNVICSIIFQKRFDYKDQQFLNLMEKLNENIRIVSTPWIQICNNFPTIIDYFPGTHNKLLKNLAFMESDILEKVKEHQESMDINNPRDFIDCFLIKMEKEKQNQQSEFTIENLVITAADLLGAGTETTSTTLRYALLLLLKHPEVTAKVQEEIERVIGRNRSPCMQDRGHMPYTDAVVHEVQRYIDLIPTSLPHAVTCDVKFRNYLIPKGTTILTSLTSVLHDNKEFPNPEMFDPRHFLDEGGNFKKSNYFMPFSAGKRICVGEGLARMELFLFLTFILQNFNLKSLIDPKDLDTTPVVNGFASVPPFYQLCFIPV
In another data set the target is Cytochrome P450 3A4 (Homo sapiens, UniProt P08684). In words: Inhibition of recombinant human CYP3A4 expressed in Escherichia coli using coumarin based substrate by fluorescence assay. Format: ADME.
Cytochrome P450 3A4, sequence (P08684 whole entry): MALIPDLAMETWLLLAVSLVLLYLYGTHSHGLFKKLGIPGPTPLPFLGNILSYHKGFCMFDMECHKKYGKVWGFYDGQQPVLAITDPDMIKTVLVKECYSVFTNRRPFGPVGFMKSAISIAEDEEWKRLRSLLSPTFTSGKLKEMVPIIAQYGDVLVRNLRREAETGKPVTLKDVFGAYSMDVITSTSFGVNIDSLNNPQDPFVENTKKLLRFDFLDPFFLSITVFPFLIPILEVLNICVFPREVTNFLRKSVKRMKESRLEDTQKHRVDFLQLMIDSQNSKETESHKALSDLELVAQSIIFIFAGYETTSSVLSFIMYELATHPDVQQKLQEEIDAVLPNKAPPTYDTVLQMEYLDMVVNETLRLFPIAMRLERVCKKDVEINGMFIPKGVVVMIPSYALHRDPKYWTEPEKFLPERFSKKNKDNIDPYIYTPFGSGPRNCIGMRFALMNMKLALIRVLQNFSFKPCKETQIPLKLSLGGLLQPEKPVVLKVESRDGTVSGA
Another data set concerns the target Cytochrome P450 2D6 (Homo sapiens, UniProt P10635). In words: Inhibition of recombinant human CYP2D6 using coumarin based substrate by fluorescence assay. The class given is ADME.
Data set [21] is described as follows: Cmax in po dosed rat at LOAEL measured after 7 days. The class given is ADME, organism-based. The arrangement: route oral. The following applies: in vivo.
Data set [22] is described as follows: AUC in po dosed rat at LOAEL measured after 7 days. Format: ADME, organism-based. The following applies: in vivo.
The nature of data set [23]: Toxicity in rat assessed as sperm granuloma at 300 mg/kg, po after 7 days. Format: organism-based. The following applies: in vivo.
Data set [24] is described as follows: Toxicity in rat assessed as bilirubinemia at 300 mg/kg, po after 7 days. The class given is organism-based. Particulars: in vivo.
A short description of data set [25]: Toxicity in rat assessed as liver hypertrophy at 300 mg/kg, po after 7 days. Format: organism-based. Particulars: in vivo.
In data set [26] the target is Voltage-gated inwardly rectifying potassium channel KCNH2 (Homo sapiens, UniProt Q12809). As to the kind of experiment: Inhibition of human ERG by electrophysiology based assay.
Voltage-gated inwardly rectifying potassium channel KCNH2, sequence (Q12809 whole entry): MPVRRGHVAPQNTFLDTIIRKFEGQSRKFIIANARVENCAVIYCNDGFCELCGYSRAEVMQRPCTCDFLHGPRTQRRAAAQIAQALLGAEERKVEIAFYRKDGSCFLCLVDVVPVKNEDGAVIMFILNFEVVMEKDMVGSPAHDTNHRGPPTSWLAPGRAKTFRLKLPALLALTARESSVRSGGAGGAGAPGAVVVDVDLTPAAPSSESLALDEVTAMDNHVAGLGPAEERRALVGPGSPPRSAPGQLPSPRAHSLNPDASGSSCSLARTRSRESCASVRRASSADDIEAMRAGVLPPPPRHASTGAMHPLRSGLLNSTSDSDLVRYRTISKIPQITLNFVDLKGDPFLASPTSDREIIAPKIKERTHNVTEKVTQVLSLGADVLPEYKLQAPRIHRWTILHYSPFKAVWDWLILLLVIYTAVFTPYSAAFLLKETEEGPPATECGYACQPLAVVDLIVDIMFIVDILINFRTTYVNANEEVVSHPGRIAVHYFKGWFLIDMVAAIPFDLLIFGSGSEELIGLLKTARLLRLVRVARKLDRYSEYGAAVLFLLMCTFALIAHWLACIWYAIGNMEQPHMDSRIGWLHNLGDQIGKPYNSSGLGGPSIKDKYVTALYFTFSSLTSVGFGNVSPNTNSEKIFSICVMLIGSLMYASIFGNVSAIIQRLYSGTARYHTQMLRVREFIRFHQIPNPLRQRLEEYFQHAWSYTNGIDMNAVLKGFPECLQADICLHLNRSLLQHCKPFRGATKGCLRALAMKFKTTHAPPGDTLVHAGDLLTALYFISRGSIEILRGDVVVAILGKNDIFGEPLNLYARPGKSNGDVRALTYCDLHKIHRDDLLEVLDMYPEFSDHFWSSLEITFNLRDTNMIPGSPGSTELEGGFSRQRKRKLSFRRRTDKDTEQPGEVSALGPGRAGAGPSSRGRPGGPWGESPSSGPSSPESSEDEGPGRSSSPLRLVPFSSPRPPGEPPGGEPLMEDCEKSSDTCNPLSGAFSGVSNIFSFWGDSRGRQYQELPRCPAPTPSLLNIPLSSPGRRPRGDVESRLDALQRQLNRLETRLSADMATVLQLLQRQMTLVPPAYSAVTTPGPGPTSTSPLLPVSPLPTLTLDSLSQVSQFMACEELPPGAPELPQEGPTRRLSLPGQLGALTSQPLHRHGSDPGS
Data set [27] can be described thus: Toxicity in rat assessed as unilateral sperm granuloma at 300 mg/kg, po after 7 days. Format: organism-based. The following applies: in vivo.
Data set [28] can be described thus: Apparent permeability across apical to basolateral side in human Caco2 cells. Particulars: Caco-2. For orientation: Caco-2 monolayers are a common model of the intestinal barrier.

Cytochrome P450 2D6, sequence (P10635 whole entry): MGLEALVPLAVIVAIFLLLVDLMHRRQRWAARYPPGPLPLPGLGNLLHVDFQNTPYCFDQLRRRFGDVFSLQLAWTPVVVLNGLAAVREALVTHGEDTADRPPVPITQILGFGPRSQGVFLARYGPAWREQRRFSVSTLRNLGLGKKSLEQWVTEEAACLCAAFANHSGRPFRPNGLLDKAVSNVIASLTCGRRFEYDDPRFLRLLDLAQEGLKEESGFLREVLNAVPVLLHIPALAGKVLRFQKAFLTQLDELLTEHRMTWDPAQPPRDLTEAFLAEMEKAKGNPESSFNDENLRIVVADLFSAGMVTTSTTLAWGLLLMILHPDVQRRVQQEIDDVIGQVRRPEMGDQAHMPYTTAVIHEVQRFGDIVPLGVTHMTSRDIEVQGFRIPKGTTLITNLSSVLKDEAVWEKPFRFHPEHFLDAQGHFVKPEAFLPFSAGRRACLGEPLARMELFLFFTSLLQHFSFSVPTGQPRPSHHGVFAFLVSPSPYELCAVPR
Cytochrome P450 2C9, sequence (P11712 whole entry): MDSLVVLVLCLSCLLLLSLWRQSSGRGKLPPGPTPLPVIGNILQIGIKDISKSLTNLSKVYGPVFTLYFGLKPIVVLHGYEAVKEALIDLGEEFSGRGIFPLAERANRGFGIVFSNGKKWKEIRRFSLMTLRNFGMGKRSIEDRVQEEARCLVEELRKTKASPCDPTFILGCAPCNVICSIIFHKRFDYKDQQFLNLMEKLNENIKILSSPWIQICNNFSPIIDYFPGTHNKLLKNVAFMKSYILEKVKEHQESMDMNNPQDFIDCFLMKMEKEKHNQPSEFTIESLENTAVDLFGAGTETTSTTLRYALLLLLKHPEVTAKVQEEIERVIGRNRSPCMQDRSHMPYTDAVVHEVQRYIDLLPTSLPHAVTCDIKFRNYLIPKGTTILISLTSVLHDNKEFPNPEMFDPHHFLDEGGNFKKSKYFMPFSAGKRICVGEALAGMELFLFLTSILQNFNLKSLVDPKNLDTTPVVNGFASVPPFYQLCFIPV

With `CC(C)(O)c1ccccc1CC[C@@H](SCC1(CC(=O)O)CC1)c1cccc(/C=C/c2ccc3ccc(Cl)cc3n2)c1` [MONTELUKAST], the inhibition entry in data set [1] and in data set [2] was “Active” each time. At Leukotriene C4 synthase, this compound had an IC50 of less than 5 µM.
Consider `COc1cc(N(CC2CC2)c2ccc(Cl)c3ccccc23)cnc1C(=O)[C@H]1C[C@@H]1C(=O)O`, for which the fraction unbound in [3] came to 0.0062; in data set [4], 0.0021; in data set [5] it was 0.0066. Also, the half-life in data set [6] was 4.8 h; in data set [7], 2.7 h. Also, the values for the bioavailability in data set [8] and in [9] were 91% and 46%, respectively. The pH-dependent lipophilicity (logD) in data set [10] is 2.4. The hepatocyte CLint at 1 µM in data set [11] came to 5 µL/min/1e6 cells. The fEC50 with Rattus norvegicus is listed as 7.5 nM. For the same compound, the solubility thermodynamic at 24 h in [12] is 576 µM (≈ 260 µg/mL). The values for the clearance in data set [13] and in data set [14] were 12 mL/min/kg and 2.4 mL/min/kg, respectively. The Vd turned out to be 2.8 L/kg in data set [15] and 1.1 L/kg in data set [16]. Moreover, the IC50 is 0.074 µM in data set [17]; more than 20 µM at Cytochrome P450 1A2; more than 20 µM on Cytochrome P450 2C9; more than 20 µM at Cytochrome P450 2C19; more than 20 µM at Cytochrome P450 3A4; more than 20 µM on Cytochrome P450 2D6. The compound also gave an INH in [18] of 0.6 µM. Also, the Cmax at […] worked out at 47 µM in [19] and 144 µM in [21]. For the same compound, the AUC in data set [20] was found to be 200 µM·h; in data set [22], 1830 µM·h. Also, the Activity entry in data set [23], in [24], in data set [25] and in data set [27] was “Toxic” throughout. Also, in [26], the “inhibition (INH)” value is recorded as “Not Active”. In addition, the Papp A→B in [28] came to 105 ×10⁻⁶ cm/s.
